# Results reported in patent US8785483B2, “Methods for treating COPD” (The Board of Regents of the University of Texas System, priority 2010, dated 2014).
# Legend:
# Muc5AC = Muc5AC ELISA in culture medium; format: cell-based, human; settings: airway epithelial monolayer, IL-13 48 h
# Description: FIGS. 5A-5B. AR inhibition prevents IL-13-induced goblet cell metaplasia and expression of Muc5AC in airway epithelial monolayer. (A) The well-differentiated airway epithelial cells at air-liquid interface (ALI) were incubated with IL-13 for 48 h without or with AR inhibitor, fidarestat. The monolayer was fixed as described and immunohistochemistry using Muc5AC antibodies was performed on the sections. A representative photomicrograph is shown (n=4); magnification 400×. […] (C) The airway epithelial monolayer was incubated with IL-13 submerged in basal medium for 48 h in the absence and presence of AR inhibitor, fidarestat. The culture medium was collected from the top chamber and utilized for determination of Muc5AC by an ELISA, (n=4); *p<0.005 vs Control; **p<0.01 vs IL-13. For air-liquid interface (ALI) culture, SAEC were seeded at 8.5×10^4 cells/12-mm-diameter PET transparent insert with […] pores (12-well millicell culture insert; Millipore) and pre-coated with rat tail collagen type-1 (Sigma-Aldrich). The cells were grown submerged in the differentiation medium as described earlier by Zhen et al. (Am J Respir Cell Mol Biol 36: 244-253, 2007). […] Muc5AC levels in the culture medium were assessed by ELISA using commercially available human anti-Muc5AC ELISA essentially as described by the manufacturer (Cosmo Bio USA; Carlsbad, Calif.).
# SPDEF = experiment: RT-PCR of SPDEF in IL-13-treated SAEC monolayer; format: cell-based, human; settings: SAEC monolayer at ALI, IL-13 18 h
# Description: FIGS. 6A-6B. AR inhibition prevents IL-13-induced expression of Mucin and transcription factor SPDEF in airway epithelial cell monolayer. (A) The airway epithelial cell monolayer at ALI was serum starved without or with fidarestat and incubated with IL-13 for 18 h. Total RNA was isolated and subsequently RT-PCR was performed to assess the expression of Muc5AC and SPDEF. The bar diagrams show densitometric analysis of the corresponding blots (n=4). *p<0.001 vs Control; **p<0.001 vs IL-13; (B) The monolayer of ciliated airway cells at ALI was treated with AR inhibitor for 24 h and subsequently incubated with IL-13 for 24 or 48 h. At the end of incubation, cell lysate was prepared and subjected to western blotting using antibodies against Muc5AC, Muc5B, and SPDEF. The membranes were stripped and re-probed with antibodies against GAPDH to show the equal loading of protein. A representative blot is shown (n=4). *p<0.0001 vs Control; **p<0.001 vs IL-13.
# For air-liquid interface (ALI) culture, SAEC were seeded at 8.5×10^4 cells/12-mm-diameter PET transparent insert with […] pores (12-well millicell culture insert; Millipore) and pre-coated with rat tail collagen type-1 (Sigma-Aldrich). The cells were grown submerged in the differentiation medium as described earlier by Zhen et al. (Am J Respir Cell Mol Biol 36: 244-253, 2007). […]
compound,measurement,setting,value
"NC(=O)[C@@H]1C[C@]2(NC(=O)NC2=O)c2cc(F)ccc2O1 [fidarestat, (2S,4S)-2-aminoformyl-6-fluoro-spiro[chroman-4,4′-imidazolidine]-2′,5′-dione]",prevention of IL-13-induced secretion of Muc5AC in the medium,Muc5AC,~80%
same,IL-13-induced SPDEF mRNA levels,SPDEF,decreased significantly
